# Earlier results as cited in publication PMC11070402, “New antiproliferative 3-substituted oxindoles inhibiting EGFR/VEGFR-2 and tubulin polymerization” (Molecular Diversity, 2023).
# Where two headings read alike, the source gives them in different places.
# Experiments:
# VEGFR-2 = details: cited from earlier work
# tubulin [1] = system: tubulin; parameters: method as in PMID 33038796; details: read-out: tubulin polymerization IC50; cited from earlier work
# tubulin [2] = system: tubulin; parameters: method as in doi:10.1016/j.molstruc.2022.132345; details: read-out: anti-tubulin activity IC50; cited from earlier work
# EGFR (T790M) = system: EGFR (T790M); parameters: method as in PMID 29758406; details: read-out: IC50 against EGFR (T790M); cited from earlier work
# EGFR (L858R) = system: EGFR (L858R); parameters: method as in PMID 29758406; details: read-out: IC50 against EGFR (L858R); cited from earlier work
# c-MET = system: c-MET; parameters: method as in PMID 29758406; details: read-out: IC50 against c-MET; cited from earlier work
# EGFR^L858R/T790M = system: EGFR^L858R/T790M; parameters: method as in PMID 34798457; details: cited from earlier work
# EGFR^WT kinase = target: EGFR^WT kinase; parameters: method as in PMID 34798457; details: cited from earlier work
smiles,measurement,setting,value
c1nc(Nc2ccc(N3CCOCC3)cc2)cc(Nc2ccc3[nH]ccc3c2)n1 [VIII],IC50,VEGFR-2; read-out: IC50 against VEGFR-2,1200 nM
Cc1cc(-c2cccc(-c3c[nH]c4ccccc34)n2)c2ccccc2n1 [XII],IC50,tubulin [1],5 µM
Cc1ccc(Nc2cc(Oc3ccc4[nH]ccc4c3)ncn2)cc1S(N)(=O)=O [VII],IC50,VEGFR-2; read-out: IC50 versus VEGFR-2,45 nM
COc1cc(NC(=O)/C(C#N)=C/c2c[nH]c3ccccc23)cc(OC)c1OC [X],IC50,tubulin [2],18 µM
CC(C)c1ccc(Cn2cc(-c3cc(-c4ccc(Br)cc4)nc(N)n3)c3ccccc32)cc1 [IV],IC50,EGFR (T790M),94 nM
same,IC50,EGFR (L858R),99 nM
same,IC50,c-MET,595 nM
C=CC(=O)Nc1cc(Nc2nccc(-c3cn(C)c4ccccc34)n2)c(OC)cc1-n1cccc1CN(C)C [V],IC50,EGFR^L858R/T790M,1.7 nM
same,selectivity versus EGFR^L858R/T790M over EGFR^WT kinase,EGFR^L858R/T790M,about 22 folds
same,IC50,EGFR^WT kinase,37 nM
